These results are taken from patent EP0516861A1, “PYRIDONECARBOXYLIC ACID DERIVATIVE” (BANYU PHARMACEUTICAL CO., LTD., priority 1990, dated 1992).

Values after ≈ are worked out from the molar mass of the structure shown. Counter-ions that a name gives are not always drawn. Like-named read-outs stand apart in the source and are kept apart here. Some results are limits rather than exact numbers.

One experiment relates to S.aureus BB5769. The experiment in a line: In vitro antibacterial activity, agar plate dilution method. It is filed as cell-based. Conditions: Staphylococcus aureus, MH agar, 10⁶CFU/ml, 16 hours at 37°C, read-out: Minimum inhibitory concentration (MIC) S.aureus BB5769. The method, then:
(§1) One platinum loopful portions of a test strain (quantity of each strain inoculated : 10⁶CFU/ml) cultured overnight in Mueller Hinton broth were inoculated respectively into MH agars containing an antibacterial agent in various concentrations. After 16 hours culture at 37°C, minimum inhibitory concentration (MIC: µg/ml) was measured.

In the next experiment the test system is S.aureus BB5703. The experiment is described as above. Conditions: Staphylococcus aureus, MH agar, 10⁶CFU/ml, 16 hours at 37°C, read-out: Minimum inhibitory concentration (MIC) S.aureus BB5703. In kind it is cell-based. As for the experimental part:
as §1

Another experiment relates to S.aureus JS1. Described as above. In kind it is cell-based. The note with it: Staphylococcus aureus, β-lactamase-producing bacterium, MH agar, 10⁶CFU/ml, 16 hours at 37°C, read-out: Minimum inhibitory concentration (MIC) S.aureus JS1. The method, then: as §1
A further experiment relates to L1210. Briefly: Life-span prolonging effect on L1210 leukemia-bearing mice. It is filed as in vivo, CDF₁ mice. Conditions: for effect at an administration quantity of 0.02 mg/kg: life-span prolongation, 0.02 mg/kg intraperitoneal. As for the experimental part: (§2) In this experiment, 10⁶ L1210 cells or 10⁴ P388 cells were intraperitoneally transplanted into CDF₁ mice (♀, 5 weeks old), a drug in the various concentrations was intraperitoneally injected once a day for continuous 10 days from the day after the transplantation, and survival periods after the tumor transplantation were recorded.

A further experiment has as its target DNA topoisomerase II. The experiment in a line: DNA topoisomerase inhibition activity (DNA relaxation, agarose-gel electrophoresis). It is filed as biochemical, murine. The note with it: relaxation of supercoiled pBR 322 plasmid DNA, 37°C for 10 minutes, enzyme from L1210 nuclei. The method, then: (§3) In this experiment, as enzymes were used DNA topoisomerase I and DNA topoisomerase II obtained by purifying an extract from the nuclei of cells of L1210 murine leukemia by column chromatography using hydroxylapatite and phosphocellulose, respectively, and as a DNA was used supercoiled pBR 322 plasmid DNA.
(§4) Measurement of inhibition effect was made by the method disclosed in a literature, i. e. Okura et al., Biochem. Biophys. Res. Comm. 157, 183 - 189, 1988, namely by warming at 37°C for 10 minutes the supercoiled DNA in DNA topoisomerase I or DNA topoisomerase II solutions containing a drug in various concentrations, and then detecting the resultant topology changes of the DNA as changes of the electrophoretic images in agarose - gel electrophoresis.

A further experiment concerns the target T1, DNA topoisomerase I (Mus musculus, UniProt Q04750).
T1 construct: obtained by purifying an extract from the nuclei of cells of L1210 murine leukemia by column chromatography; endogenous in cells; host or cells: L1210 murine leukemia cells (nuclear extract, purified on hydroxylapatite / phosphocellulose columns)
T1 sequence (Q04750 1-767): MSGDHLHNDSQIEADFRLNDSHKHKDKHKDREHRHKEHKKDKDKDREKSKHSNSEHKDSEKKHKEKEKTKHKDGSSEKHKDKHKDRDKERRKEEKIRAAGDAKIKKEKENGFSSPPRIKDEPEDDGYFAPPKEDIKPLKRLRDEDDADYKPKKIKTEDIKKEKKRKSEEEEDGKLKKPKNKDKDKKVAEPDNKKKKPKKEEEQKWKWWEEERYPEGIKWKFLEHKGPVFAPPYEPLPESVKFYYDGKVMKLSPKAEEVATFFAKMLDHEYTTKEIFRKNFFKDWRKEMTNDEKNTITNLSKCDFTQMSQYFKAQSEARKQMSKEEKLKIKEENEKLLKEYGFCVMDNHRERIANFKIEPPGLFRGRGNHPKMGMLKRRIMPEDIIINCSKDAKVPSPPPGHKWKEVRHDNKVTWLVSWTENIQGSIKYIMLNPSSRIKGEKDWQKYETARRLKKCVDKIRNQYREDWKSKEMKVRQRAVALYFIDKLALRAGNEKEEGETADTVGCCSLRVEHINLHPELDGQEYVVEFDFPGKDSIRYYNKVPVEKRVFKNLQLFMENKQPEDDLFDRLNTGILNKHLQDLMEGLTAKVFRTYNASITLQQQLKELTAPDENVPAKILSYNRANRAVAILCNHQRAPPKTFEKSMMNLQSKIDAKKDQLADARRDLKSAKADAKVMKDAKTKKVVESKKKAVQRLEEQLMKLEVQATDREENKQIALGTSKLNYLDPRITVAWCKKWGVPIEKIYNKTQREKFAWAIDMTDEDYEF
The description is as above. In kind it is biochemical, murine. Conditions: relaxation of supercoiled pBR 322 plasmid DNA, 37°C for 10 minutes, enzyme from L1210 nuclei; read-out: IC₅₀ DNA topoisomerase I (converted). The method, then: as §3, §4

In the next experiment the test system is L1210 cells. The experiment in a line: In vitro cytotoxicity against L1210 murine leukemia (proliferation inhibition). In kind it is cell-based. The note with it: Mus musculus, read-out: IC₅₀. The method, then:
In this experiment, respective 2 × 10⁴ L1210 cells were cultured at 37°C under 5% CO₂ gas for 3 days in respective RPMI 1640 media containing a drug in various concentrations and 10 % fetal bovine serum, and the numbers of the cells after the culture were counted using a Coulter counter.

The next experiment deals with P388/V. The experiment in a line: Proliferation inhibition, drug-sensitive P388 cells (MTT method). It is filed as cell-based, murine. Conditions: Mus musculus, P388, 72 h, 3 days culture, read-out: IC₅₀ P388/V. As for the experimental part: (§5) Proliferation inhibition effects againt P388/multiple drug - resistant cells were measured using vincristine and adriamycin as comparative compounds.
(§6) In this experiment, a drug - sensitive strain (P388/S) of a murine leukemia cell P388 and a drug - resistant strain (P388/VCR, T. Turuo, H. Iida, S. Tsukagoshi, et al., Cancer Research 42, 4730 - 4733, 1982) were suspended respectively in RPMI 1640 media containing a drug in various concentrations, 10 % fetal bovine serum and 20 µ M β - mercaptoethanol, respectively, and seeded in a 96 - well microtest plate in a number of 10⁴ cells/well, and cultured at 37°C under CO₂ gas for 3 days. Calculation of 50% proliferation inhibition concentration (IC₅₀) was made by the MTT method (M. C. Alley, D. A. Scudiero, A. Monks, et al., Cancer Research 48, 589 - 601, 1988).
On the technique in general: Tetrazolium dyes change colour on reduction, which living cells bring about.

Another experiment deals with P388/VCR. The experiment in a line: Proliferation inhibition, multiple drug-resistant P388 cells (MTT method). In kind it is cell-based, murine. Conditions: Mus musculus, 72 h, 3 days culture, read-out: IC₅₀ P388/VCR. The method, then: as §5, §6
A further experiment deals with P388. The experiment in a line: Life-span prolonging effect on P388 leukemia-bearing mice. In kind it is in vivo, CDF₁ mice. The method, then:
as §2

[1] abbreviates: dose 0.020 mg/kg intraperitoneally once a day for 10 days.
Where [2] appears, read: dose 0.078 mg/kg intraperitoneally once a day for 10 days.
[3] abbreviates: dose 0.313 mg/kg intraperitoneally once a day for 10 days.
Setting [4] is: 72 h, L1210 cells, cultured 3 days, Coulter counter.

For the molecule `N[C@@H]1C=CC[C@@H]2CN(c3c(F)cc4c(=O)c(C(=O)O)cn(C5CC5)c4c3F)C[C@@H]21.O=C(O)C(F)(F)F` (relative stereo) [Compound of Ex.1, 7 - [(1R*, 2R*, 6S*) - 2 - amino - 8 - azabicyclo [4.3.0]non - 3 - en - 8 - yl] - 1 - cyclopropyl - 6, 8 - difluoro - 1, 4 - dihydro-4 - oxo - 3 - quinolinecarboxylic acid trifluoroacetate], the MIC with S.aureus BB5769, in the experiment with S.aureus BB5703 and in the experiment with S.aureus JS1 was under 6 ng/mL each time.
For the molecule `CN[C@@H]1C=CC[C@@H]2CN(c3c(F)cc4c(=O)c(C(=O)O)cn(C5CC5)c4c3F)C[C@@H]21.O=C(O)C(F)(F)F` (relative stereo) [Compound of Ex.2, 1 - cyclopropyl - 6, 8 - difluoro - 1, 4 - dihydro - 7 - [(1R*, 2R*, 6S*) - 2 - (N - methylamino) - 8 - azabicyclo [4.3.0]non - 3 - en - 8 - yl] - 4 - oxo - 3 - quinolinecarboxylic acid trifluoroacetate], the MIC with S.aureus BB5769, with S.aureus BB5703 and in the experiment with S.aureus JS1 was under 6 ng/mL in each case.
For `COc1c(N2C[C@H]3CC=C[C@@H](N)[C@H]3C2)c(F)cc2c(=O)c(C(=O)O)cn(C3CC3)c12` (relative stereo) [Compound of Ex.11, (-) - 7 - [(1R*, 2R*, 6S*) - 2 - amino - 8 - azabicyclo [4.3.0]non - 3 - en - 8 - yl] - 1 - cyclopropyl - 6 - fluoro - 1, 4 - dihydro - 8 - methoxy - 4 - oxo - 3 - quinolinecarboxlic acid hydrochloride], the “Mean survival days L1210” value was 25.8 days in the experiment with L1210 (setting [1]), over 50.8 days in the experiment with L1210 (setting [2]) and 16.4 days with L1210 (setting [3]). The “T/C % L1210” value in the experiment with L1210 (setting [1]) was 188%; with L1210 (setting [2]), 371%; in the experiment on L1210 (setting [3]), 120%. For the same molecule, the “effect at an administration quantity of 0.02 mg/kg” value with L1210 is on record as “effective”. Also, the “IC₅₀ DNA topoisomerase II” value against DNA topoisomerase II was determined as 2 µg/mL. The IC50 at DNA topoisomerase I was 3020 µM; in the experiment on L1210 cells (L1210, 72 h), 32 ng/mL.
Consider `Cl.Nc1c(F)c(N2C[C@H]3CC=C[C@@H](N)[C@H]3C2)c(F)c2c1c(=O)c(C(=O)O)cn2C1CC1` (single isomer, unassigned) [Compound of Ex.13, (-) - 5 - amino - 7 - [(1R*, 2R*, 6S*) 2 - amino - 8 - azabicyclo [4.3.0]non - 3 - en - 8 - yl] - 1 - cyclopropyl - 6, 8 - difluoro - 1, 4 - dihydro - 4 - oxo - 3 - quinolinecarboxylic acid hydrochloride], for which the MIC in the experiment on S.aureus BB5769, in the experiment with S.aureus BB5703 and in the experiment on S.aureus JS1 was under 6 ng/mL each time. For the same molecule, the “IC₅₀ DNA topoisomerase II” value against DNA topoisomerase II came to 4 µg/mL. In addition, the IC50 on DNA topoisomerase I is 221 µM; in the experiment on L1210 cells (setting [4]), 1.5 ng/mL.
Turning to `COc1cccc2c1C(=O)c1c(O)c3c(c(O)c1C2=O)C[C@@](O)(C(=O)CO)C[C@@H]3O[C@H]1C[C@H](N)[C@H](O)[C@H](C)O1` [Adriamycin, adriamycin], the IC50 in the experiment on P388/V was 21 ng/mL (≈ 0.0386 µM); with P388/VCR it was 63 ng/mL (≈ 0.116 µM).
For `CC[C@@]1(O)C(=O)OCc2c1cc1n(c2=O)Cc2cc3ccccc3nc2-1` [Camptothecin, camptothecin, reference compound], the “IC₅₀ DNA topoisomerase II” value against DNA topoisomerase II was over 10 µg/mL. For the same molecule, the IC50 with L1210 cells (setting [4]) is 40 ng/mL (≈ 0.115 µM).
As to `COc1cc([C@@H]2c3cc4c(cc3[C@@H](O[C@@H]3O[C@@H]5CO[C@@H](C)O[C@H]5[C@H](O)[C@H]3O)[C@H]3COC(=O)[C@H]23)OCO4)cc(OC)c1O` [Etoposide, etoposide, reference compound], the “Mean survival days L1210” value is 14.2 days in the experiment on L1210 (setting [1]), 22.8 days in the experiment on L1210 (setting [2]) and 31.4 days in the experiment with L1210 (setting [3]). Further, the “T/C % L1210” value in the experiment on L1210 (setting [1]) is on record as 104%; with L1210 (setting [2]), 166%; in the experiment on L1210 (setting [3]) it was 229%. Further, the “effect at an administration quantity of 0.02 mg/kg” value in the experiment with L1210 is recorded as “no effect”. In addition, the figures for the “Mean survival days P388” value with P388 (setting [1]), in the experiment with P388 (setting [2]) and with P388 (setting [3]) were 12.8 days, 16.6 days and 22.2 days, respectively. Moreover, the “T/C % P388” value in the experiment with P388 (setting [1]) is given as 114%; in the experiment with P388 (setting [2]), 148%; in the experiment on P388 (setting [3]), 198%. In addition, the IC50 in the experiment with L1210 cells (setting [4]) amounted to 21 ng/mL (≈ 0.0357 µM).
`CC[C@]1(O)C[C@H]2CN(CCc3c([nH]c4ccccc34)[C@@](C(=O)OC)(c3cc4c(cc3OC)N(C=O)[C@H]3[C@@](O)(C(=O)OC)[C@H](OC(C)=O)[C@]5(CC)C=CCN6CC[C@]43[C@@H]65)C2)C1` [Vincristine, vincristine]: the IC50 with P388/V amounted to 0.32 ng/mL (≈ 0.000388 µM); in the experiment on P388/VCR, 19 ng/mL (≈ 0.023 µM).
